Assay results from paper PMC3399817 (PLoS ONE, 2012).

What was measured:
CAMK2G = target: T1, CAMK2G (Homo sapiens, UniProt Q13555); assay: KINOMEscan; assay type: binding; details: 1 uM
T1 construct: purchased Ambit KINOMEscan (DiscoverX)
Method in brief: (§1)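 First-pass selectivity screen: compound at 1 μM, endpoint is whether substrate binding to each kinase is suppressed.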

FLT3 = target: T2, FLT3 (Homo sapiens, UniProt P36888); assay: KINOMEscan; assay type: binding; details: FLT3, 1 uM
T2 construct: purchased Ambit KINOMEscan (DiscoverX)
Method in brief: as §1

FLT3(D835Y) = target: T3, FLT3(D835Y) (Homo sapiens, UniProt P36888, D835Y); assay: KINOMEscan; assay type: binding; details: 1 uM
T3 construct: purchased Ambit KINOMEscan (DiscoverX)
Method in brief: as §1

KIT(A829P) = target: T4, KIT(A829P) (Homo sapiens, UniProt P10721, A829P); assay: KINOMEscan; assay type: binding; details: 1 uM
T4 construct: purchased Ambit KINOMEscan (DiscoverX)
Method in brief: as §1

MST1R = target: T5, MST1R (Homo sapiens, UniProt Q04912); assay: KINOMEscan; assay type: binding; details: 1 uM
T5 construct: purchased Ambit KINOMEscan (DiscoverX)
Method in brief: as §1

PIK3CA(H1047L) = target: T6, PIK3CA(H1047L) (Homo sapiens, UniProt P42336, H1047L); assay: KINOMEscan; assay type: binding; details: 1 uM
T6 construct: purchased Ambit KINOMEscan (DiscoverX)
Method in brief: as §1

[1] = target: T7, RPS6KA6(Kin.Dom.1-N-terminal) (Homo sapiens, UniProt Q9UK32); assay: KINOMEscan; assay type: binding; details: 1 uM
T7 construct: RPS6KA6(Kin.Dom.1-N-terminal); purchased Ambit KINOMEscan (DiscoverX)
Method in brief: as §1

DLD-1 (K-RAS^G13D/+) = assay: Cell cycle analysis (propidium iodide FACS); assay type: cell-based; details: DLD-1 cells
Method: Cell cycle analysis was performed via FACS-based propidium iodide quantification, using standard methods. To measure cell viability, cells were grown in 96-well plates in the presence or absence of drug for 72 hours, fixed with 4% paraformaldehyde, and then stained with Syto60 (Invitrogen). Plates were imaged and quantified using the LiCor Odyssey system (LiCor).

[2] = system: phospho-MEK1 (Ser217/Ser221) and phospho-ERK1/2 (Thr202/Tyr204, Thr185/Tyr187); assay: Bio-Plex phospho-MEK1 and phospho-ERK1/2; assay type: cell-based; details: 45 minute exposure, 1 µM, K-RAS wild-type and mutant cells
Method: The Bio-Plex assay system was used to measure signaling in drug-treated cells. Briefly, cells were incubated in the presence of drug for various amounts of time and then lysed in Bio-Rad cell lysis buffer (Bio-Rad). Protein quantification was performed using BCA assay (Pierce) and 5 µg of protein from each sample was used for Bio-Plex analysis. Phospho-signaling assays were performed using available phospho-signaling assay kits and quantified on a Bio-Plex 200 system (Bio-Rad): p-Iκβα (Ser32/Ser36), p-JNK (Thr183/Tyr185), p-MEK1 (Ser217/Ser221), p-ERK1/2 (Thr202/Tyr204, Thr185/Tyr187), p-p90RSK (Thr359/Ser363), p-p38 (Thr180/Tyr182), p-c-JUN (Ser63), p-ATF2 (Thr71), p-AKT (Ser473), p-S6 (Ser235/Ser236), p-STAT3 (Ser727), p-STAT3 (Tyr705), and p-GSK3α/β (Ser21/Ser9). Bio-Plex assay for total MEK1 was also performed as a loading control.

T1 sequence (Q13555 whole entry): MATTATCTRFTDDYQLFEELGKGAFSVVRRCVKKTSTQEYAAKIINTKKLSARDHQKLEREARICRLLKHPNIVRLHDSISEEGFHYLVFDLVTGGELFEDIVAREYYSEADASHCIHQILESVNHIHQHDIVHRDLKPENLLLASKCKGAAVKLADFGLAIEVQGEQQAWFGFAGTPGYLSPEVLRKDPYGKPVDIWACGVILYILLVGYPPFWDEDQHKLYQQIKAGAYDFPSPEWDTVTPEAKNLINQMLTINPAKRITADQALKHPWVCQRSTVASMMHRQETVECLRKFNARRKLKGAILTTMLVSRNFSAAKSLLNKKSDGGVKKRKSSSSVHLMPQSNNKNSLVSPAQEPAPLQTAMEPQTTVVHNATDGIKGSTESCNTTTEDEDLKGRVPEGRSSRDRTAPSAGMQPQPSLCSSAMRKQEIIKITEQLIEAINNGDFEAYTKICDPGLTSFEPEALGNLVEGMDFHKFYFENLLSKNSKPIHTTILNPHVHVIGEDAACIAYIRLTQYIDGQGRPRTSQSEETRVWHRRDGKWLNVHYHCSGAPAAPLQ
T7 sequence (Q9UK32 1-400 limits assumed): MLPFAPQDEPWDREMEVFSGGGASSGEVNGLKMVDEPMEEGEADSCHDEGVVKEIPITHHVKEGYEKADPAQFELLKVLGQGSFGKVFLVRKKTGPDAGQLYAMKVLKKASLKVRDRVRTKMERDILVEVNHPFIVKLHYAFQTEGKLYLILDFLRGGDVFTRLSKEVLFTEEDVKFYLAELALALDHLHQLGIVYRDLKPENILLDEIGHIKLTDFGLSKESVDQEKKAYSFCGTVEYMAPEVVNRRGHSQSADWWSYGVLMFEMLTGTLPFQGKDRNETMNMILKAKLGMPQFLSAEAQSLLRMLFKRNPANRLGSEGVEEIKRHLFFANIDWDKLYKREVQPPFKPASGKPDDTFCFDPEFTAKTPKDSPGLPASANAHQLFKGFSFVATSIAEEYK
T4 sequence (P10721 26-976 A829P): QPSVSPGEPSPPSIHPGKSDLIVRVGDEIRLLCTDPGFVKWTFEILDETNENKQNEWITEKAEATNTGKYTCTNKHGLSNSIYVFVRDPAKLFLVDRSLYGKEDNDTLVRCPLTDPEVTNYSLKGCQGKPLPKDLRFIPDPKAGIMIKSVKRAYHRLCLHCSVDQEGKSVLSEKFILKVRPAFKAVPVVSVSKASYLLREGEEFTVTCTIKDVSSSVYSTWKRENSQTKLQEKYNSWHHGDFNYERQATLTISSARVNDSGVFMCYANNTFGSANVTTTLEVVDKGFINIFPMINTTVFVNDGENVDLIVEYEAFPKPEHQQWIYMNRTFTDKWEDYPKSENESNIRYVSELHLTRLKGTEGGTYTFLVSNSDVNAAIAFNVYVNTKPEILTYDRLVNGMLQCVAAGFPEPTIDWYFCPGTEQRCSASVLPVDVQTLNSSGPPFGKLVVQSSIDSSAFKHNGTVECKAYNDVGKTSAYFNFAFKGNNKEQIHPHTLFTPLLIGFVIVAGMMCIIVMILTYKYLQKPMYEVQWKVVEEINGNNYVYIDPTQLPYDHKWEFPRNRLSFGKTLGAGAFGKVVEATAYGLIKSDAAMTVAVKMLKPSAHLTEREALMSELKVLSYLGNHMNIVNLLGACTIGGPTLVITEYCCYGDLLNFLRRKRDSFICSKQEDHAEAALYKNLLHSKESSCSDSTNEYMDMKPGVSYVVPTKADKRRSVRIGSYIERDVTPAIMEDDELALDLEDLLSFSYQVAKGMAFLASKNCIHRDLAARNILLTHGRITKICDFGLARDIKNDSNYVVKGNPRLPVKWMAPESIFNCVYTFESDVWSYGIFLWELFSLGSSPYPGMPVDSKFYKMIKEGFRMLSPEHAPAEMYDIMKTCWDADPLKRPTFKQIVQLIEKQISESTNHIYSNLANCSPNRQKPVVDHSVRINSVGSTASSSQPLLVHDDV
T6 sequence (P42336 whole entry H1047L): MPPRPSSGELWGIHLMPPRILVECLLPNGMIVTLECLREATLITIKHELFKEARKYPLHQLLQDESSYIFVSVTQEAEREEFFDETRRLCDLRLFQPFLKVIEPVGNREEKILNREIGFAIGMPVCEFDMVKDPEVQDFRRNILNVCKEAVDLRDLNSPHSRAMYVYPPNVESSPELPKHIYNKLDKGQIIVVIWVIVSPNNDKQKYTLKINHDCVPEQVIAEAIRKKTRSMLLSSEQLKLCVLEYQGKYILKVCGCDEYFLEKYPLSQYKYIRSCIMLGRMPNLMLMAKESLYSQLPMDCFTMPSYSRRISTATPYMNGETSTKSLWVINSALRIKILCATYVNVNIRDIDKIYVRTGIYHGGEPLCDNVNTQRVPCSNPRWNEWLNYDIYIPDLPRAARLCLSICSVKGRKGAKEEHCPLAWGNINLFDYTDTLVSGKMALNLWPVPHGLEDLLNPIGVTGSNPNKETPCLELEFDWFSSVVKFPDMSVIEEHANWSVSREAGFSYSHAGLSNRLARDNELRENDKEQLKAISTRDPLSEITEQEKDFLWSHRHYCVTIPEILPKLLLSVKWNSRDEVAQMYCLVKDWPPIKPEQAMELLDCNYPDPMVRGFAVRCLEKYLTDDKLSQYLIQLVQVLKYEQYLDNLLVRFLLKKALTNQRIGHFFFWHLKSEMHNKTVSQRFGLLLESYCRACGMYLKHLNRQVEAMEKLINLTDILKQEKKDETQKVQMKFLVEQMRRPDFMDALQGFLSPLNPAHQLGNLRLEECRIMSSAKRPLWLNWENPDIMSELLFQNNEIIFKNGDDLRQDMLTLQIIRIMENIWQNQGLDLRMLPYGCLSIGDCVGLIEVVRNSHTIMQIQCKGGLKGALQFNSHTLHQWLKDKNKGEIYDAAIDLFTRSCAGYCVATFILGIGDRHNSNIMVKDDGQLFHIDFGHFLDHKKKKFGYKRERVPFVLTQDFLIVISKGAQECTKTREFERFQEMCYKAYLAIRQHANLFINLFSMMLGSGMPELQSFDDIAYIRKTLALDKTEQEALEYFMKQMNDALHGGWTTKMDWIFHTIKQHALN
T5 sequence (Q04912 25-1400): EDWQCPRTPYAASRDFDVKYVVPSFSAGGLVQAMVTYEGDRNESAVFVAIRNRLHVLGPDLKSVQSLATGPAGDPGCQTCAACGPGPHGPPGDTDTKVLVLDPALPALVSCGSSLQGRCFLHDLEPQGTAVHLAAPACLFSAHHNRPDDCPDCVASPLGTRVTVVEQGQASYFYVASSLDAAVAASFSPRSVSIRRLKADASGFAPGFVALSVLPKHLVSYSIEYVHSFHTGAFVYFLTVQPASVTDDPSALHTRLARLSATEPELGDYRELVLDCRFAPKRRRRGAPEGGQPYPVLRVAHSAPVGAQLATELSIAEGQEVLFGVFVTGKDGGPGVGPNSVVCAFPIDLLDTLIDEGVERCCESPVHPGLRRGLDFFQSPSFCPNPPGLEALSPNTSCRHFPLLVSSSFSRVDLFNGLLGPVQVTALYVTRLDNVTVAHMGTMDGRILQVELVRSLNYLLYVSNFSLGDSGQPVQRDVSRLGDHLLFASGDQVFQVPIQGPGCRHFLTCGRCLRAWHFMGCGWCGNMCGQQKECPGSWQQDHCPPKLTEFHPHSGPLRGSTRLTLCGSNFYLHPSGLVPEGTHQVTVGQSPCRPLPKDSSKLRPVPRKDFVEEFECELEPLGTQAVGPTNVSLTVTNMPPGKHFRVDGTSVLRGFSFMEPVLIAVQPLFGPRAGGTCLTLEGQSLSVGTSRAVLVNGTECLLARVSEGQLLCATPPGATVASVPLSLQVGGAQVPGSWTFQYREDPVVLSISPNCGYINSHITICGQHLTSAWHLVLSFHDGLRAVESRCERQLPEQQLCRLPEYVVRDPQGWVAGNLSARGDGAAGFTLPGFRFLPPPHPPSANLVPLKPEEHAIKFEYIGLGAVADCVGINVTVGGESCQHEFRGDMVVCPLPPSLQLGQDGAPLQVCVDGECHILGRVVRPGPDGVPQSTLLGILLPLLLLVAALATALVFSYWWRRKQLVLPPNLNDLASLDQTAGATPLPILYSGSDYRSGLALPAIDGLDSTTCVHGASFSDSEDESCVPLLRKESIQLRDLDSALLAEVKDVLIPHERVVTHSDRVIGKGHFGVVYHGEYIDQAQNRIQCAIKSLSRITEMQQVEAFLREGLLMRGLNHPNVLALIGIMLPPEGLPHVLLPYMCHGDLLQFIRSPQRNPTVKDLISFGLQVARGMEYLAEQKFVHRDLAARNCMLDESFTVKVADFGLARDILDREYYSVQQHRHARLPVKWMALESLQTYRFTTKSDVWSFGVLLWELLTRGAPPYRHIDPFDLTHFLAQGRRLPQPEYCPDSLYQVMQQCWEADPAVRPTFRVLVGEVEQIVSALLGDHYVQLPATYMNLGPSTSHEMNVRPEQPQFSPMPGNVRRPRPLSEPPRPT

SMILES	% binding compared to no inhibitor control (CAMK2G)	% binding compared to no inhibitor control (FLT3)	% binding compared to no inhibitor control (FLT3(D835Y))	% binding compared to no inhibitor control (KIT(A829P))	% binding compared to no inhibitor control (MST1R)	% binding compared to no inhibitor control (PIK3CA(H1047L))	% binding compared to no inhibitor control [1]	apoptosis (DLD-1 (K-RAS^G13D/+))	cell cycle profile (DLD-1 (K-RAS^G13D/+); propidium iodide)	MEK and ERK phosphorylation [2]
COc1ccccc1Nc1nc(-c2ccc(OC)c(OC)c2)cc2nccn12 [BAY derivative 6]	100%	52%	50%	35%	100%	100%	70%			
COc1ccc(-c2cc3nccn3c(Nc3ncccc3C(N)=O)n2)cc1OC.Cl.Cl [BAY61-3606, 2-[7-(3,4-dimethoxyphenyl)-imidazo [1,2-c]pyrimidin-5-ylamino] nicotinamide dihydrochloride, reference compound]								nor did it induce apoptosis	did not alter the cell cycle profile	unable to do so
